The record followed here is the METLIN SMRT retention time set (Domingo-Almenara et al. 2019).

A short description of the data set: gradient 5% acetonitrile 3 min, to 50% in 2 min, to 85% in 15 min, held 3 min, 100 µL/min. The settings on record: column: Zorbax Extend-C18 2.1 x 50 mm; eluents: water / acetonitrile, 0.1% formic acid. The essentials: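 A Zorbax Extend-C18 column (2.1 × 50 mm, 1.8 μm) run at 100 μL/min with water and acetonitrile, both containing 0.1% formic acid, separated mixtures of ~100 pure standards. The HPLC was coupled to a quadrupole time-of-flight mass spectrometer operated in positive and negative ionization mode, with dead and dwell volumes of 40 μL and 900 μL. Each retention time was taken from a computationally picked adduct peak that was then manually inspected.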
As to `O=C(O)c1ccc(N2CCCC(CN3CCCC3)C2)c(NS(=O)(=O)c2ccccc2)c1` (stereo not drawn), the RP-LC retention time amounted to 643 s.

With `CCOC(=O)C1=C(CN2CCC(Cc3ccccc3)CC2)NC(=O)NC1c1ccco1` (stereo not drawn), the RP-LC retention time came to 708 s.

As for `COc1ccc(S(=O)(=O)N2CCC(Cc3nncn3-c3ccccc3)CC2)cc1`, the RP-LC retention time stood at 775 s.

Molecule `CCOc1ccccc1CN1CCn2c(nnc2[C@@H]2C[C@@H](O)CN2Cc2cccnc2)C1` returned an RP-LC retention time of 581 s.

Molecule `CCOCCCNC(=O)c1ccc(CS(=O)c2ccccc2Cl)o1` (stereo not drawn) returned an RP-LC retention time of 704 s.

Take `O=C(c1cc(S(=O)(=O)N2CCCC(C(=O)N3CCc4ccccc4C3)C2)c[nH]1)N1CCCC1` (stereo not drawn): the RP-LC retention time came out at 808 s.

On to `COc1cccc(C(=O)N2C[C@@H]3C[C@H](NC(=O)c4cccs4)[C@H]2C3)c1OC`, for which the RP-LC retention time worked out at 679 s.

`Cc1ccccc1NS(=O)(=O)c1cc(-c2[nH]ncc2C(=O)N2CCCC2)oc1C` registered an RP-LC retention time of 700 s.

In turn, `Cc1ccc(-c2noc(C3CCCN3C(=O)c3cncc(Br)c3)n2)cc1` (stereo not drawn) yielded an RP-LC retention time of 961 s.

As to `Cc1noc(-c2ccc(OC3CN(S(=O)(=O)c4c(C)noc4C)C3)cc2)n1`, the RP-LC retention time stood at 943 s.

Molecule `O=C(NCc1ccc(F)cc1)c1nnc(-c2ccc(S(=O)(=O)N3CCCC3)cc2)o1` had an RP-LC retention time of 888 s.

Molecule `CC(C)c1cc(C(=O)Nc2ccc(F)cc2)nn1C1CCS(=O)(=O)C1` (stereo not drawn) returned an RP-LC retention time of 860 s.

On to `COc1ccc2c(Sc3ccccc3)c(C(=O)N3CCN(c4ccccn4)CC3)[nH]c2c1`, for which the RP-LC retention time is 750 s.

In the case of `Cc1ccc(C2c3[nH]c4ccccc4c3CCN2C(=O)c2ccnn2C)cc1` (stereo not drawn), the RP-LC retention time amounted to 673 s.

`CCOC(=O)c1ccc2[nH]c(-c3ccc(S(=O)(=O)F)cc3)cc(=O)c2c1` had an RP-LC retention time of 858 s.

Regarding `CCOc1ccc(NC(=O)N2CCC3(CC2)NC(=O)c2ccc(F)cc2N3C)cc1`, the RP-LC retention time is 777 s.

In the case of `CCN1CCCCc2cc(C(=O)N(C)CC(=O)NC)sc21`, the RP-LC retention time amounted to 738 s.

As for `Cc1ccccc1-c1noc(Cn2c(=O)n(CC(C)C)c(=O)c3ccccc32)n1`, the RP-LC retention time was 1220 s.

In turn, `CCCCC(CC)C(=O)Nc1nc(-c2ccc(F)cc2)cs1` (stereo not drawn) yielded an RP-LC retention time of 1190 s.

Consider `CC1CCN(c2nc(-c3ccc([N+](=O)[O-])cc3)nc3ccccc23)CC1`, for which the RP-LC retention time was found to be 1030 s.

In turn, `O=C(NCc1ccc(F)cc1F)c1c(O)c2cccnc2n(-c2ccccc2)c1=O` yielded an RP-LC retention time of 1200 s.

Regarding `CCN1CCN(CCNC(=O)c2cnc(-c3ccc(C)cc3)nc2-c2ccncc2)CC1`, the RP-LC retention time came out at 598 s.

As for `CCOc1ccc(-c2ccc(N3CCN(C(=O)c4ccc5ncsc5c4)CC3)nn2)cc1`, the RP-LC retention time stood at 629 s.

`Cc1cc(F)ccc1NC(=O)c1cc2n(n1)CC(C)(C(=O)NC1CCCCC1)N(C)C2=O` (stereo not drawn) yielded an RP-LC retention time of 776 s.

`O=C1CCN(C2OC(CO)C(O)C2O)C(=O)N1` (stereo not drawn) registered an RP-LC retention time of 1040 s.

Molecule `CCOC(=O)C(=O)N1CCN(c2ncnc3c2nnn3C)CC1` came in with an RP-LC retention time of 643 s.

In turn, `COC(=O)c1cc2c(=O)n(-c3cccc(Cl)c3)ccc2nc1C` showed an RP-LC retention time of 878 s.

Consider `CCN1CCN(CC2CCN(S(=O)(=O)Cc3c(F)cccc3Cl)CC2)CC1`, for which the RP-LC retention time was 611 s.

In the case of `Cc1c(Cl)cccc1Nc1c(-c2ccc(N(C)C)cc2)nc2cnccn12`, the RP-LC retention time is 961 s.

The molecule `Cc1nnc(N2CCCC(C(=O)NCc3ccccc3Cl)C2)c2nn(-c3ccccc3)c(C)c12` (stereo not drawn) registered an RP-LC retention time of 759 s.

`Cc1ccc(C)c(NC(=O)Cn2cnc3nc(N4CCC(C(=O)NC5CC5)CC4)sc3c2=O)c1` yielded an RP-LC retention time of 713 s.

`COC(=O)c1ccc(N2C=C(C#N)S(=O)(=O)c3cc(F)ccc32)cc1` returned an RP-LC retention time of 847 s.

For `CCOc1ccccc1-c1noc(CN2C(=O)COc3ccc(S(=O)(=O)CC)cc32)n1`, the RP-LC retention time amounted to 902 s.

As to `CSc1ccc(CNC(=O)C2CCCN(c3ccc(=O)n(-c4cccc(F)c4)n3)C2)cc1` (stereo not drawn), the RP-LC retention time came to 888 s.

In turn, `Cc1cc2nn(CC(=O)NCc3ccc(F)cc3)c(=O)n2c(-c2ccccc2)n1` came in with an RP-LC retention time of 744 s.

Consider `Cc1ccc(-c2csc(NC(=O)CCCOc3ccc(Cl)cc3)n2)cc1`, for which the RP-LC retention time came out at 979 s.

As to `CCN1C(=O)c2c(C(=O)NCc3ccc(C)cc3)ncn2CC1(C)C(=O)NC1CCCC1` (stereo not drawn), the RP-LC retention time is 783 s.

Molecule `CCn1ccc(C(=O)N2CC(c3nc(C4CC4)no3)C3(CCN(C)CC3)C2)n1` (stereo not drawn) returned an RP-LC retention time of 586 s.

Molecule `Cc1ccc(Oc2cccc(C(N)=O)c2)nn1` showed an RP-LC retention time of 559 s.

`O=C(NCc1ccccn1)c1c2c(nc3ccccc13)C(=O)N(C1CCCCC1)C2` registered an RP-LC retention time of 626 s.

Regarding `CCCCCn1c(=O)c2ccccc2n(Cc2nc(-c3ccc(F)c(Cl)c3)no2)c1=O`, the RP-LC retention time is 1290 s.

In turn, `COc1ccc(CN(C(=O)COc2c(C)cccc2C)C2CCS(=O)(=O)C2)cc1OC` (stereo not drawn) gave an RP-LC retention time of 847 s.

Consider `CCCCC1CCC(C(=O)Nc2nc(-c3ccc4c(c3)N(C)C(=O)CO4)c(C)s2)CC1` (stereo not drawn), for which the RP-LC retention time turned out to be 1410 s.

For the molecule `Cn1c(N2CCCC(C(=O)Nc3ccc(F)cc3F)C2)cc(=O)n(C)c1=O` (stereo not drawn), the RP-LC retention time worked out at 700 s.

In turn, `N=C(N)SCCc1ccc(OCc2ccc([N+](=O)[O-])cc2)cc1` gave an RP-LC retention time of 787 s.

In turn, `COc1ccc(OC)c(S(=O)(=O)N2CC(c3nc(-c4ccsc4)nn3C)C2)c1` registered an RP-LC retention time of 816 s.

Molecule `CCOC(=O)N1CCN(C(=O)c2cccc(-n3cnnn3)c2)CC1` returned an RP-LC retention time of 619 s.

`CC(NC(=O)Cc1cccn1-c1ccc(F)cc1)c1ccccc1` (stereo not drawn) had an RP-LC retention time of 962 s.

`CCOc1ccc(-c2noc(CN3N=NC4C(=O)N(c5cccc(OC)c5)C(=O)C43)n2)cc1OC` (stereo not drawn) had an RP-LC retention time of 917 s.

`Cc1ccc(CNC(=O)c2cc(-c3ccncc3)cn2C)cc1C`: the RP-LC retention time is 672 s.

On to `O=C(Nc1cccc(-c2nnc3n2CCCC3)c1)c1ccn[nH]1`, for which the RP-LC retention time amounted to 595 s.

As to `CC1=C(c2ccc(C)cc2)S(=O)(=O)N=C1N1CCCN(C(=O)C2CCCO2)CC1` (stereo not drawn), the RP-LC retention time worked out at 733 s.

On to `COC(=O)C1=C(C(=O)OC)SC2(S1)C(C(=O)OC)=C(C(=O)OC)Sc1c2ssc1=O`, for which the RP-LC retention time amounted to 977 s.

With `CC(C)NC(=O)N1CCC(c2noc(-c3ccncc3)n2)C1` (stereo not drawn), the RP-LC retention time came to 626 s.

Molecule `CC1CCN(C(=O)c2cc(S(=O)(=O)N(C)CC(=O)N3CCN(c4ccccc4)CC3)c[nH]2)CC1` displayed an RP-LC retention time of 862 s.

Molecule `COc1ccc(NC(=O)NC2CCN(c3ccc(F)c(C)c3)C2=O)cc1` (stereo not drawn) returned an RP-LC retention time of 798 s.

Molecule `O=c1ccc(N2CCC(NS(=O)(=O)c3ccccc3Cl)CC2)nn1CC1CC1` displayed an RP-LC retention time of 747 s.

Regarding `CCN(CC)CCCNC(=O)C1CCC(=O)N(c2ccc(OC)cc2)C1c1ccc(F)cc1` (stereo not drawn), the RP-LC retention time was 614 s.

In the case of `O=C(Nc1ccc2c(c1)CN(C(=O)C1COc3ccccc3O1)CCO2)C1CC1` (stereo not drawn), the RP-LC retention time came out at 823 s.

The molecule `O=C(NC1CC1)c1ccc(N2CCC(NCc3ccc(F)cc3)C2)nc1` (stereo not drawn) gave an RP-LC retention time of 553 s.

Molecule `Cc1cc2c(=O)n(CC(=O)Nc3ccc(F)cc3Cl)ccc2s1` returned an RP-LC retention time of 812 s.

Consider `Clc1ccccc1CNc1nnc(-c2nc(C3CC3)no2)c2ccccc12`, for which the RP-LC retention time was 1010 s.

`CN(C)CCN(Cc1ccco1)C(=O)c1c2c(nc3ccccc13)C(=O)N(C1CCCCC1)C2` came in with an RP-LC retention time of 581 s.

For `Cc1ccc(-n2c(=O)c3c(cc(C)n3C)n(CC(=O)Nc3ccccc3)c2=O)cc1`, the RP-LC retention time came to 834 s.

On to `O=C(C1CCCN(c2ccncc2)C1)N1CCCCCC1` (stereo not drawn), for which the RP-LC retention time amounted to 603 s.

For `O=C(NCC1CCCO1)c1nc(-c2ccc(N3CCCC3)cc2)no1` (stereo not drawn), the RP-LC retention time amounted to 982 s.

In the case of `Cc1ccc2c(NC(=O)C(c3ccccc3)c3ccccc3)noc2n1`, the RP-LC retention time amounted to 785 s.

Take `COc1cccc(CNC2=NCCNC23CCN(S(=O)(=O)c2ccc4c(c2)CCCC4)CC3)c1`: the RP-LC retention time turned out to be 822 s.

Consider `Cc1ccc(CNC(=O)CN2C(=O)C3CCCCN3c3ccc(S(=O)(=O)N4CCCC4)cc32)o1` (stereo not drawn), for which the RP-LC retention time was found to be 905 s.

Turning to `CN(CCc1noc(-c2ccccc2)n1)C(=O)Nc1cccc(Br)c1`, the RP-LC retention time was 977 s.

`CC(C(=O)N1CCN(c2ncccn2)CC1)n1c2ccccc2c2cnn(C)c(=O)c21` (stereo not drawn) had an RP-LC retention time of 794 s.

`O=C(NCc1ccc2c(c1)OCO2)C1CCN(c2cncnc2N2CCCCC2)CC1` displayed an RP-LC retention time of 659 s.

With `CCN(CC)CCCNC(=O)CN1C(=O)C2CCCCN2c2ccc(C(=O)N(C)C)cc21` (stereo not drawn), the RP-LC retention time was found to be 595 s.

In turn, `Cc1cc(C(=O)Nc2nc3c(s2)CN(C(=O)c2nc4ccccc4s2)CC3)no1` displayed an RP-LC retention time of 870 s.

As to `COc1ccc(-c2noc(Cc3nc(-c4ccc(C)cc4)cs3)n2)cc1`, the RP-LC retention time was 1250 s.

Take `CCCN1CCN(C(=O)CN2C(=O)C3CCCCN3c3ccc(C(=O)N4CCCCC4)cc32)CC1` (stereo not drawn): the RP-LC retention time worked out at 652 s.

`Cc1nc(S(=O)(=O)N2CCC(C(=O)NCc3ccc(Cl)cc3)CC2)cn1C` came in with an RP-LC retention time of 709 s.

`Cc1ccc(C(=O)NC2CCN(c3ccccc3)C2=O)c(C)c1` (stereo not drawn) gave an RP-LC retention time of 797 s.
